Reference: patent US5885786A, “Methods for screening of substances for inhibition of multidrug resistance” (priority 1996, dated 1999)
pIC50: −log10 of the molar value. Entries after “also recorded” stand apart in the source; their conditions may differ. *1 amine or outer side, *2 acyl side, *3 side chain or, on linkers, in order; H or OH if unused. Where a SMILES comes first, the peptide text is derived from it. Bridges are numbered along the chain shown (N, C = ends). Roman numbers before positions name the chains, in order. [ ]: non-standard residue; d: D form. Actinocin(9to1) = Cc1c2oc3c(C)ccc(C(=O)[*:1])c3nc-2c(C(=O)[*:2])c(N)c1=O; NMeV = CN[C@H](C(=O)O)C(C)C; Sar = CNCC(=O)O

Columns and labels:
[1] = cited from earlier work; for absorption (in words): oral or unspecified
[2] = cited from earlier work
[3] = system: glycosylation of ceramide in MCF-7-AdrR cells (UDP-glucose:ceramide glucosyltransferase); assay: Glycosylation of C6-ceramide and natural glycosphingolipid synthesis, [3H]galactose labeling; assay type: cell-based
Experimental: FIG. 14A and FIG. 14B. Effect of Tamoxifen on Ceramide Synthesis and Glycosylation in MCF-7-AdrR Cells. FIG. 14: A Influence of tamoxifen on ceramide synthesis. The experiment was conducted as described in the legend to FIG. 13. Aliquots of the total lipid extract were based-hydrolyzed as described in Example I, separated by TLC using solvent system IV, and the resolved [^3 H]ceramide was quantitated by liquid scintillation spectrometry. Results are the mean±SEM of duplicate determinations from two separate experiments. FIG. 14B: Effect of tamoxifen on glycosylation of C6 -ceramide. Cells, in 100×20 mm culture dishes, were preincubated without or with 5.0 μM tamoxifen for 30 min, followed by incubation without or with 5.0 μM C6 -ceramide:BSA (prepared at a 1:1 molar ratio) for an additional 30 min. Cells were labeled thereafter with 1.0 μCi/ml [^3 H]galactose for 24 h. [3H]Galactose uptake was determined and found to be similar in all experimental points (1.0×10^6 cpm/dish). The total extracted lipid was applied to TLC separation and [^3 H]glycosphingolipids were analyzed as described in the legend to FIG. 10. The autoradiography of a representative chromatogram is shown.
In order to explore this notion, a short-chain ceramide analog with a 6-carbon N-acyl group (C6 -ceramide), was utilized as a substrate.

[4] = system: lipid-1 and -2 formation in MCF-7-AdrR cells; assay: Effect of inhibitors of sphingolipid biosynthesis on lipid-1 and -2 formation; assay type: cell-based
Experimental: FIG. 5A, FIG. 5B, and FIG. 5C. Effect of inhibitors of sphingolipid biosynthesis on lipid-1 and -2 formation in MCF-7-AdrR cells. Cells, grown to near-confluency in 100×20 mm culture dishes, were radiolabeled with [^3 H]palmitic acid (FIG. 5A), or [^3 H]serine (FIG. 5B, FIG. 5C), in the presence or absence of 10 mM L-cycloserine (FIG. 5A), 50 μM FB1 (FIG. 5B), or 20 μM PPMP (FIG. 5C), for 24 h in RPMI-1640 medium containing 0.1% BSA. Extracted lipids were analyzed by TLC using solvent system II (FIG. 5A, FIG. 5B), or solvent system III (FIG. 5C) as described in Example I. Lac-cer, lactosylceramide.
The effects of various inhibitors of sphingolipid biosynthesis were investigated, using MCF-7-AdrR cells, labeled with either [^3 H]palmitic acid, or [^3 H]serine. The first enzymatic reaction in sphingoid base biosynthesis, catalyzed by serine:palmitoyltransferase, is the formation of 3-ketosphinganine from serine and palmitoyl-CoA (FIG. 1).

[5] = in vivo; cited from earlier work
[6] = system: glycosylceramide formation in MCF-7-AdrR cells; assay: Inhibition of [3H]glycosylceramide formation in MCF-7-AdrR cells (TLC, liquid scintillation); assay type: cell-based; details: 5.0 μM drug, 24 h, MCF-7-AdrR, FIG. 11B; read-out: inhibition of glycosylceramide formation (cpm tritium)
Experimental: FIG. 9. […] Values represent the mean of determinations from three separate experiments, and are calculated as the percent glycosylceramide in the total lipid tritium extract.
FIG. 11A and FIG. 11B. […] FIG. 11: A Autoradiography. […] For autoradiography equal aliquots by volume of total lipid extract were applied to TLC plates. […] [^3 H]Glycosylceramide, visualized in panel A, was quantitated as described in the legend to FIG. 9. Each value represents mean±SEM of determinations from three separate experiments.
FIG. 12. […] [^3 H]Glycosylceramide was quantitated as described in the legend to FIG. 9. Results represents the mean±SEM of determinations from three separate experiments.
MCF-7 cells, grown in medium containing 10% FBS, were switched to media containing 5% FBS. Cell lipids were radiolabeled by adding [^3 H]serine (2.0 μCi/ml), [^3 H]palmitic acid (1.0 μCi/ml), or [^3 H]galactose (1.0 μCi/ml) to the culture medium for the indicated times. Other radiolabels can be substituted. Cells were then rinsed twice with PBS, pH 7.4, and 2 ml of ice-cold methanol containing 2% acetic acid was added. The cells were scraped free, transferred to glass test tubes (13×100 mm), and lipids were extracted by the addition of chloroform (2 ml) followed by water (2 ml). The resulting organic lower phase was withdrawn and evaporated under a stream of nitrogen. Lipids were resuspended in 100 μL of chloroform/methanol (1:1, v/v), and aliquots were applied to TLC plates.
Lipid analysis was carried out by TLC using solvent system I: chloroform/methanol/ammonium hydroxide (40:10:1, v/v) for glycosylceramide separation, solvent system II: chloroform/methanol/water (60:40:8, v/v) for sphingoglycolipid separation, or solvent system III: chloroform/methanol/acetic acid/water (50:30:7:3, v/v) for sphingomyelin separation. For determination of ceramides, an aliquot of the chloroform-soluble lipids was base-hydrolyzed in 0.1N KOH in methanol for 1 h at 37° C., lipids were re-extracted, and separated by TLC using solvent system IV: hexane/diethyl ether/formic acid (60:40:1, v/v).
Radiochromatograms were sprayed with EN^3 HANCE, and exposed for 3-7 days for autofluorgraphy. TLC areas, aligned with bands on the autoradiographs or with iodine-stained commercial lipid standards, were scraped from the plate. Water (0.5 ml) was added to the plate scrapings followed by 4.5 ml of EcoLume counting fluid, and the samples were quantitated by liquid scintillation spectrometry.

MCF-7-AdrR cells = assay: Cell proliferation (MTS) assay: adriamycin toxicity and chemosensitization; details: for effect on adriamycin toxicity / chemosensitization (in words): 5.0 μM tested drug + adriamycin, 72 h, FIG. 15A, 16B
From the text: FIG. 15A and FIG. 15B. […] FIG. 15B: Glycosylceramide levels in MDR Cells following drug treatment. […] In order to avoid differences in [^3 H]glycosylceramide values which account for cell death, the same amount of total radioactive lipid from each sample was applied to TLC separation.
FIG. 16A and FIG. 16B. […] FIG. 16A: Effect of PPMP on cellular glycosylceramide levels. […] [^3 H]Glycosylceramide was quantitated as described in the legend to FIG. 9.
Vehicle (acetone, ethanol) was always added to control (minus drug) wells. The cytotoxic activity of a drug was determined using the Promega CellTiter 96™ AQueous MTS cell proliferation assay kit. Each experimental point was performed in six replicates. MTS/PMS solution (20 μl/well) was aliquoted into all wells, and the cells were incubated for 2-3 h, or until an O.D. of 0.9-1.0 was obtained as a highest reading. Thereafter, absorbence at 490 nm was recorded using an ELISA plate reader (Molecular Devices, San Diego, Calif.).

acid sphingomyelinase = details: literature; cited from earlier work
[7] = system: P388-adriamycin resistant cells; details: literature; cited from earlier work
[8] = system: OVCAR-3 (MDR ovarian carcinoma); details: clinically relevant concentrations (Rogan et al., 1984); cited from earlier work
P-glycoprotein = details: literature; cited from earlier work
[9] = system: glycosylceramide synthesis in MCF-7-AdrR cells; assay: Effect of PPMP on cellular glycosylceramide levels, [3H]serine 24 h; assay type: cell-based; details: FIG. 16A
From the text: FIG. 16A and FIG. 16B. […] FIG. 16A: Effect of PPMP on cellular glycosylceramide levels.

[10] = cited from earlier work; remark: listed apart in the source
[11] = 5.0 μM C6-ceramide, FIG. 14B, […]
[12] = 10 mM L-cycloserine, [3H]palmitic acid, FIG. 5A

## O=NN(CCCl)C(=O)NC1CCCCC1 [Lomustine, 1-(2-chloro-ethyl)-3-cyclohexyl-1 nitrosourea]
[1]; 15 minutes after intravenous administration
  tissue levels vs plasma levels (in words): comparable to plasma levels
[1]; within 24 hours, oral 30 mg/m^2 to 100 mg/m^2
  excretion of radioactivity as degradation products (in words): about half
[2]; physiological pH
  ionization (in words): relatively unionized
[2]
  solubility in water (in words): relatively insoluble

## CCCCCCCCCCCCC/C=C/[C@@H](O)[C@H](CO)NC(=O)CCCCC [C6 -ceramide]
[3]; 5.0 μM C6-ceramide, FIG. 14B
  natural glycosylceramide level (in words): not altered
[3]; [11]
  reduction of ganglioside synthesis: 35%
  reduction of natural lactosylceramide synthesis: 33%
[3]; cells incubated with C6-ceramide
  formation of C6-glycosylceramide (in words): clearly visible

## N[C@H]1CONC1=O [L-cycloserine]
[4]; [12]
  lipid-1 formation (in words): almost complete disappearance
  lipid-2 formation (in words): major inhibition

## CCCCC(C)C(OC(=O)CC(CC(=O)O)C(=O)O)C(CC(C)CC(O)CCCCC(O)CC(O)C(C)N)OC(=O)CC(CC(=O)O)C(=O)O (stereo not shown) [FB1]
[4]; 50 μM FB1, [3H]serine, FIG. 5B
  level of both lipid-1 and -2 (in words): profound reduction

## CC[C@]1(O)C[C@H]2CN(CCc3c([nH]c4ccccc34)[C@@](C(=O)OC)(c3cc4c(cc3OC)N(C=O)[C@H]3[C@@](O)(C(=O)OC)[C@H](OC(C)=O)[C@]5(CC)C=CCN6CC[C@]43[C@@H]65)C2)C1 [Vincristine]
[1]; in vivo
  distribution in blood cells (in words): extensively concentrated in platelets
  plasma protein binding (in words): bind to plasma proteins
[1]
  absorption (in words): Unpredictable absorption
[5]
  tolerability / toxicity (in words): sever neurological toxicity

## CCC(=C(c1ccccc1)c1ccccc1)c1ccccc1 [triphenylbutene]
[6]
  inhibition at 5 µM: 13%
MCF-7-AdrR cells
  effect on adriamycin toxicity / chemosensitization (in words): no effect

## O=NN(CCCl)C(=O)NCCCl [Carmustine, 1,3bis (2-chloroethyl)-1-nitrosourea]
[2]
  solubility in water (in words): poorly soluble in water

## COc1ccc(CCN(C)CCCOc2ccc(S(=O)(=O)c3c(C(C)C)cn4ccccc34)cc2)cc1OC [SR33557]
Acid sphingomyelinase
  inhibition of acid sphingomyelinase (in words): inhibition of acid sphingomyelinase
[7]
  reversal of MDR / adriamycin resistance in P388 cells (in words): reverse MDR

## N.N.[Cl][Pt][Cl] [cisplatin]
[8]
  resistance of OVCAR-3 to the drug (in words): resistant
[1]
  absorption (in words): not absorbed orally

## COc1cc(C[C@H]2c3cc(OC)c(OC)cc3CCN2C)c(Oc2cc3c(cc2OC)-c2c(OC)c(OC)cc4c2[C@H](C3)N(C)CC4)cc1OC [thaliblastine]
[7]
  reversal of MDR / adriamycin resistance in P388 cells (in words): reverses adriamycin resistance
P-glycoprotein
  binding to P-glycoprotein (in words): binds to P-glycoprotein

## CCCCCCCCCCCCCCCC(=O)NC(CN1CCOCC1)C(O)c1ccccc1 (stereo not shown) [PPMP]
[9]; 24 h, 5.0 μM PPMP, read-out: maximal reduction in cellular glycosylceramide levels
  inhibition at 5 µM: 86%
[9]; PPMP, [3H]serine 24 h, read-out: IC50 for inhibition of glycosylceramide formation
  pIC50: 6.05
MCF-7-AdrR cells
  effect on adriamycin toxicity / chemosensitization (in words): clear sensitization; also recorded: effectively decreased cell survival
MCF-7-AdrR cells; MCF-7-AdrR, alone
  effect of the substance alone on cell survival (in words): no influence itself on cell viability; also recorded: no effect
[4]; 20 μM PPMP, FIG. 5C
  ceramide levels (in words): elevation in ceramide levels
  lactosylceramide and gangliosides (in words): concomitant reduction
[4]; 20 μM PPMP, [3H]serine, FIG. 5C
  formation of lipid-1 and -2 (in words): blocked completely

## Cc1c2oc3c(C)ccc(C(=O)N[C@@H]4C(=O)N[C@H](C(C)C)C(=O)N5CCC[C@H]5C(=O)N(C)CC(=O)N(C)[C@@H](C(C)C)C(=O)O[C@@H]4C)c3nc-2c(C(=O)N[C@@H]2C(=O)N[C@H](C(C)C)C(=O)N3CCC[C@H]3C(=O)N(C)CC(=O)N(C)[C@@H](C(C)C)C(=O)O[C@@H]2C)c(N)c1=O [Actinomycin D] (I: T[dV]P[Sar][NMeV] / II: T[dV]P[Sar][NMeV]; ester I:1-I:C, II:1-II:C; linker I:N-II:N via Actinocin(9to1))
[1]; in vivo, iv
  excreted into the urine: 10%
  half-life: about 36 hr
[1]; in vivo
  blood-brain barrier passage (in words): does not pass the blood-brain barrier
  dose excreted intact into the bile (in words): Half of the dose

## CO[C@@]12[C@H](COC(N)=O)C3=C(C(=O)C(C)=C(N)C3=O)N1C[C@@H]1N[C@@H]12 [Mitomycin]
[10]; human, in vivo, iv
  fraction of dose excreted unchanged in the urine: Approximately 10%
[10]; intravenous
  clearance from the serum (in words): rapidly cleared
